These results are taken from PMC4488959, “Structural Features of a Bacteroidetes-Affiliated Cellulase Linked with a Polysaccharide Utilization Locus” (Scientific Reports, 2015).

This assay addresses T1, AC2aCel5A (Bacteroidetes bacterium AC2a, UniProt A0A076MPD7, E189A).
T1 construct: signal peptide (residues 1-18) removed; mature 397 residues + C-terminal eight-residue His6-tag (405 residues), tag kept; synthetic gene, pNIC-CH, Escherichia coli
Put plainly: X-ray crystal structure (co-crystallization with […] cellotetraose). It counts as binding. As to conditions: 2.4 Å; subsites -3 to -1, molecule A only; crystals from 0.2 M potassium nitrate, 20% w/v PEG 3350; catalytically inactive mutant; authors consider that bound ligand is likely cellotetraose with fourt.

T1 sequence (A0A076MPD7 entry or part of it E189A): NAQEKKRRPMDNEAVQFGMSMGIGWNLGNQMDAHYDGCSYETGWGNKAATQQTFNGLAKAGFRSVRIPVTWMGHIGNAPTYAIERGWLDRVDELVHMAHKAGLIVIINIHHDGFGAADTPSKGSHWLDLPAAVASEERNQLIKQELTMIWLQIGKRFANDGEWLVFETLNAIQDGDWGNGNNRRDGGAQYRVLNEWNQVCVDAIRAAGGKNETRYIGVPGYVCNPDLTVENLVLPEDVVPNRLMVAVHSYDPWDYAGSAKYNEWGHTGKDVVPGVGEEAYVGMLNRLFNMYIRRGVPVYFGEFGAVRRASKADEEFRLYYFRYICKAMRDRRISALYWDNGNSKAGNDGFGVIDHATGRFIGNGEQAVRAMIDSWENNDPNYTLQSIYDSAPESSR

As for `OC[C@H]1O[C@@H](O[C@H]2[C@H](O)[C@@H](O)[C@H](O[C@H]3[C@H](O)[C@@H](O)C(O)O[C@@H]3CO)O[C@@H]2CO)[C@H](O)[C@@H](O)[C@@H]1O` (stereo partly shown) [cellotriose], the “X-ray crystal structure (co-crystallization with 5 mM cellotetraose)” value was “Additional electron density was observed in the active-site cleft of molecule A, and was refined”.
